Conditions in the first data set: not given
As to `CCOC(CC)OCC`, the boiling point is 123 °C. In turn, `CC12CC1(C)C(=O)N(c1cc(Cl)cc(Cl)c1)C2=O` (stereo unspecified) displayed a log10 Koc (L/kg) of 3.18 and a melting point of 166 °C. Molecule `O=C(O)[C@H]1CC=CCC1` yielded a boiling point of 234 °C and a melting point of 17 °C. As to `COC(C)CCOC(C)=O` (stereo unspecified), the ready biodegradability entry was “readily biodegradable”. Molecule `Cc1cc(C)c2cc(C)ccc2c1` yielded a melting point of 12 °C. As for `O=C(O)C=Cc1ccco1`, the melting point is 143 °C.

As to `c1ccc2sc(SNC3CCCCC3)nc2c1`, the melting point came out at 98 °C and the ready biodegradability result is listed as “not readily biodegradable”.

`CCC(=O)OCCOC(=O)CC` had a boiling point of 211 °C.

As for `O=S=Nc1ccccc1`, the boiling point was determined as 200 °C. For the molecule `CC(C)(C)OCCO`, the ready biodegradability entry is given as “not readily biodegradable”. With `CC(O)COCC(C)O` (stereo unspecified), the boiling point came out at 233 °C and the ready biodegradability result was “not readily biodegradable”. As to `CC1=CC=C(C(C)C)CC1`, the boiling point turned out to be 175 °C. Molecule `CCOC(=O)C=[N+]=[N-]` yielded a log10 vapour pressure (mmHg) of 0.447 and a melting point of -22 °C. For the molecule `CN(C)c1cccc2ccccc12`, the boiling point was found to be 280 °C. Molecule `COP(=S)(OC)Oc1ccc(Sc2ccc(OP(=S)(OC)OC)cc2)cc1` registered a log10 Koc (L/kg) of 5 and a melting point of 30 °C. As to `NS(=O)(=O)c1cc(C(=O)c2ccc(O)cc2)cs1`, the melting point turned out to be 192 °C. As for `CC(=O)OC(OC(C)=O)c1ccco1`, the boiling point was 220 °C and the melting point is 53.3 °C. The molecule `CC(=O)/C=C/C1C(C)=CCCC1(C)C` (stereo unspecified) returned a log10 vapour pressure (mmHg) of -1.76.

`C=C=C(C)C`: the boiling point was 40.8 °C, the log10 vapour pressure (mmHg) amounted to 2.63 and the melting point was -114 °C. In turn, `BrC(Br)C(Br)(Br)Br` came in with a melting point of 56.5 °C. `O=C1C=Cc2cccc3cccc1c23` yielded a log10 vapour pressure (mmHg) of -5.17 and a melting point of 154 °C. Regarding `Nc1c(Cl)cccc1Cl`, the log10 Koc (L/kg) was found to be 3.25 and the melting point worked out at 39 °C. Regarding `O=C(O)c1cccc(Cl)n1`, the log10 Koc (L/kg) was found to be 1.37 and the ready biodegradability entry is “not readily biodegradable”. With `O=S(=O)(O)c1ccc(Cl)cc1`, the melting point was determined as 67 °C and the ready biodegradability result is “readily biodegradable”. Molecule `Nc1ccc(S(=O)(=O)c2ccc(N)cc2)cc1` came in with a melting point of 176 °C. Consider `CC(O)c1ccccc1` (stereo unspecified), for which the boiling point came out at 205 °C, the log10 Koc (L/kg) was 1.5, the melting point is 15 °C and the ready biodegradability result is on record as “readily biodegradable”. Take `CCCCCCCC/C=C\CCCCCCCC(=O)OCC(O)CO` (stereo unspecified): the melting point came to 35 °C and the ready biodegradability entry is “readily biodegradable”. `CC(=O)NC(N)=O` showed a melting point of 218 °C. As for `Brc1cccc(Br)c1Oc1ccccc1`, the log10 Koa amounted to 8.12.

On to `CCc1ccc(C(C)C)cc1`, for which the boiling point is 197 °C. The same measure, in the same setting: the result for `CCOC(=O)CCCl` reads 162 °C.

For the molecule `OCCCCCO`, the boiling point worked out at 239 °C, the log10 vapour pressure (mmHg) is -2.41, the melting point is -18 °C and the ready biodegradability result is given as “readily biodegradable”. For `O=C1CSC2(CCN(CCCN3c4ccccc4Sc4ccc(Cl)cc43)CC2)N1`, the melting point was found to be 155 °C. On the same count and under the same terms, the value for `O=C(O)CCCCBr` was 39 °C; that for `O=[N+]([O-])c1cncn1CCN1CCOCC1` was 110 °C. Turning to `FC(F)(F)C(F)(F)F`, the boiling point is -78.1 °C, the log10 Henry constant (atm·m³/mol) was 1.31, the log10 vapour pressure (mmHg) amounted to 4.4 and the melting point was -101 °C.

Molecule `OCCCCCCCCCCCCCCO` returned a melting point of 85.8 °C. As for `COc1ccc(CC(C)(C)C)cc1`, the boiling point came out at 238 °C.

As to `Cl[Si](Cl)(Cl)c1ccccc1`, the boiling point worked out at 201 °C and the log10 vapour pressure (mmHg) is -0.371. `C/C=C(C)/C=C/C=C(C)C` showed a boiling point of 188 °C.

On to `CCCCCCC(=O)OCC`, for which the boiling point is 187 °C, the log10 Henry constant (atm·m³/mol) is -3.3, the log10 Koc (L/kg) came out at 2.61 and the log10 vapour pressure (mmHg) is -0.168. The melting point was -66.1 °C. As for `CC(C)CCOCCC(C)C`, the boiling point is 172 °C, the log10 vapour pressure (mmHg) was found to be 0.146 and the ready biodegradability result is on record as “not readily biodegradable”. In turn, `C[Si](C)(Cl)c1ccccc1` showed a log10 vapour pressure (mmHg) of -0.14. `CC(=O)Nc1ccccc1`: the boiling point was determined as 304 °C, the log10 Koc (L/kg) was found to be 1.43, the log10 vapour pressure (mmHg) is -3.7 and the melting point worked out at 114 °C. Also, the ready biodegradability result was “readily biodegradable”. Consider `CCCCCCCCCCCCCCCCCC(=O)OC`, for which the boiling point is 370 °C, the log10 vapour pressure (mmHg) was -4.87 and the melting point came out at 39.1 °C. As to `CC(O)(P(=O)(O)O)P(=O)(O)O`, the ready biodegradability entry is given as “readily biodegradable”. For `O=C1CCCCCCCCCCCN1`, the melting point turned out to be 152 °C and the ready biodegradability result is recorded as “not readily biodegradable”. `CCCC=C(C)C` gave a boiling point of 95.4 °C, a log10 vapour pressure (mmHg) of 1.73 and a melting point of -130 °C.

As for `CCNc1ccccc1C`, the boiling point stood at 216 °C. `C#CCCC#C` registered a boiling point of 86 °C and a melting point of -6 °C. For the molecule `Oc1nc2ccccc2s1`, the boiling point worked out at 360 °C and the melting point was determined as 139 °C. `CCOC(C)(C)C` showed a boiling point of 73.1 °C, a log10 Henry constant (atm·m³/mol) of -2.79, a log10 vapour pressure (mmHg) of 2.09 and a melting point of -94 °C. Molecule `COc1ccc(-c2ccc(OC)cc2)cc1` showed a melting point of 175 °C. Turning to `O=NN1CCCCC1`, the boiling point amounted to 219 °C. In turn, `CNC(=C[N+](=O)[O-])NCCSCc1ccc(CN(C)C)o1` displayed a melting point of 69.5 °C.

In turn, `CC(C)(C)CC1(C)CO1` (stereo unspecified) came in with a boiling point of 141 °C and a melting point of -64 °C. On to `Nc1cc(N2CCCCC2)nc(N)[n+]1[O-]`, for which the melting point was determined as 248 °C.

The molecule `COc1ccccc1C` had a boiling point of 171 °C and a melting point of -34.1 °C.

For `FC(Cl)(Cl)Br`, the boiling point amounted to 52 °C and the melting point was -106 °C.

Turning to `CCc1ccc(O)cc1`, the boiling point came to 218 °C, the log10 Henry constant (atm·m³/mol) is -6.11, the log10 vapour pressure (mmHg) was -1.43 and the melting point was 45 °C. For the same molecule, the ready biodegradability entry is given as “readily biodegradable”.

Molecule `CC(=O)C(=O)CC(C)C` registered a boiling point of 138 °C. `CCCCCCCCCCCCCCCCCCCC(=O)OC`: the melting point stood at 54.5 °C. In the case of `CCCCCCCCC(=O)OCC`, the boiling point stood at 227 °C and the melting point is -36.7 °C. Consider `COC(=O)Nc1nc2cc(C(=O)C3CC3)ccc2[nH]1`, for which the melting point was found to be 250 °C.

Turning to `CCCCCCCCCCCCOc1ccc(C(=O)O)cc1`, the melting point was determined as 95 °C. The same measure, in the same setting: the value for `Nc1ccc(S(=O)(=O)NC(=O)c2ccccc2)cc1` was 182 °C; that for `c1ccc(N2CCN(c3ccccc3)CC2)cc1` was 165 °C. Molecule `Clc1ccc2c(Cl)cccc2c1Cl` displayed a log10 Koa of 7.5.

Turning to `O=C(c1ccccc1)c1ccc(-c2ccccc2)cc1`, the boiling point was found to be 420 °C and the melting point turned out to be 100 °C. Molecule `Cc1ccccc1N` showed a boiling point of 200 °C, a log10 Henry constant (atm·m³/mol) of -5.7, a log10 vapour pressure (mmHg) of -0.585 and a melting point of -16.3 °C. In addition, the ready biodegradability entry is “readily biodegradable”.

In turn, `Cc1ccc(NCc2ccccc2)cc1` gave a boiling point of 319 °C and a melting point of 19.5 °C. The molecule `CCN(CCO)CCn1c(Cc2ccccc2)nc2c1c(=O)n(C)c(=O)n2C` gave a melting point of 80 °C.

Regarding `CCCCCCCCCCCCCCCCCCCCBr`, the log10 vapour pressure (mmHg) was -6.08 and the melting point amounted to 37.5 °C.

Regarding `Clc1ccc(C(Cl)Cl)c(Cl)c1Cl`, the boiling point is 278 °C and the melting point was 84 °C.

Still in this data set, the particulars now being: fish.
The molecule `CC(O)COCC(C)O` (stereo unspecified) had a log10 BCF of 0.66. In turn, `Clc1cc(Cl)cc(-c2ccccc2)c1` came in with a log10 BCF of 3.77 and a log10 biotransformation half-life (days) of 1.11. For `CC(C)CCOCCC(C)C` the same measures were 2.23 and -0.45.

`O=C1CCCCCCCCCCCN1` showed a log10 BCF of 0.41. With `CCCCCCCCc1ccc2ccc3cccc4ccc1c2c34`, the log10 biotransformation half-life (days) is 1.26.

By boiling point is commonly meant the temperature of boiling at a given pressure. As a reminder, the melting point is the temperature of the solid-liquid transition.

Source of the values: the OPERA property sets (Mansouri et al. 2018).
